Results: BigSolDB 2.1

## O=[N+]([O-])/N=C1\NCCN1Cc1ccc(Cl)nc1
In 1,2-dichloroethane, 299.96 K
  solubility (mole fraction): 0.00987
In 1,2-dichloroethane, 302.87 K
  solubility (mole fraction): 0.0108
In 1,2-dichloroethane, 304.97 K
  solubility (mole fraction): 0.0116
In 1,2-dichloroethane, 310.08 K
  solubility (mole fraction): 0.0142
In 1,2-dichloroethane, 314.14 K
  solubility (mole fraction): 0.0161
In 1,2-dichloroethane, 317.43 K
  solubility (mole fraction): 0.0183
In 1,2-dichloroethane, 321.31 K
  solubility (mole fraction): 0.0213
In 1,2-dichloroethane, 325.67 K
  solubility (mole fraction): 0.0243
In 1,2-dichloroethane, 328.74 K
  solubility (mole fraction): 0.0271
In 1,2-dichloroethane, 331.34 K
  solubility (mole fraction): 0.0309
In 1,2-dichloroethane, 333.75 K
  solubility (mole fraction): 0.0345
In 1,2-dichloroethane, 336.91 K
  solubility (mole fraction): 0.0392
In 1,2-dichloroethane, 339.95 K
  solubility (mole fraction): 0.0442
In 1,2-dichloroethane, 342.81 K
  solubility (mole fraction): 0.049
In 1,2-dichloroethane, 345.2 K
  solubility (mole fraction): 0.0546
In 1,2-dichloroethane, 347.1 K
  solubility (mole fraction): 0.0612
In 2-butanone, 293.07 K
  solubility (mole fraction): 0.0159
In 2-butanone, 299.44 K
  solubility (mole fraction): 0.0192
In 2-butanone, 302.54 K
  solubility (mole fraction): 0.0213
In 2-butanone, 306.3 K
  solubility (mole fraction): 0.0238
In 2-butanone, 308.85 K
  solubility (mole fraction): 0.026
In 2-butanone, 311.24 K
  solubility (mole fraction): 0.0281
In 2-butanone, 314.22 K
  solubility (mole fraction): 0.0308
In 2-butanone, 318.19 K
  solubility (mole fraction): 0.0346
In 2-butanone, 320.83 K
  solubility (mole fraction): 0.0379
In 2-butanone, 323.87 K
  solubility (mole fraction): 0.0419
In 2-butanone, 326.73 K
  solubility (mole fraction): 0.046
In 2-butanone, 329.81 K
  solubility (mole fraction): 0.0504
In 2-butanone, 332.97 K
  solubility (mole fraction): 0.0573
In 2-butanone, 335.21 K
  solubility (mole fraction): 0.0617
In 2-butanone, 337.54 K
  solubility (mole fraction): 0.0678
In 2-butanone, 340.65 K
  solubility (mole fraction): 0.0749
In 2-butanone, 343.2 K
  solubility (mole fraction): 0.0823
In acetone, 294.64 K
  solubility (mole fraction): 0.012
In acetone, 300.05 K
  solubility (mole fraction): 0.0141
In acetone, 301.76 K
  solubility (mole fraction): 0.0148
In acetone, 305.05 K
  solubility (mole fraction): 0.0162
In acetone, 307.77 K
  solubility (mole fraction): 0.0175
In acetone, 310.17 K
  solubility (mole fraction): 0.0187
In acetone, 317.25 K
  solubility (mole fraction): 0.0232
In acetone, 319.14 K
  solubility (mole fraction): 0.0248
In acetone, 321.59 K
  solubility (mole fraction): 0.0265
In acetone, 327.89 K
  solubility (mole fraction): 0.0325
In acetone, 330.2 K
  solubility (mole fraction): 0.0353
In chloroform, 292.04 K
  solubility (mole fraction): 0.00848
In chloroform, 294.49 K
  solubility (mole fraction): 0.00916
In chloroform, 298.22 K
  solubility (mole fraction): 0.0102
In chloroform, 303.84 K
  solubility (mole fraction): 0.0115
In chloroform, 307.04 K
  solubility (mole fraction): 0.0123
In chloroform, 310.05 K
  solubility (mole fraction): 0.0132
In chloroform, 314.03 K
  solubility (mole fraction): 0.0143
In chloroform, 316.75 K
  solubility (mole fraction): 0.0153
In chloroform, 319.07 K
  solubility (mole fraction): 0.0167
In chloroform, 321.74 K
  solubility (mole fraction): 0.0183
In chloroform, 324.64 K
  solubility (mole fraction): 0.0198
In chloroform, 326.71 K
  solubility (mole fraction): 0.0215
In chloroform, 330.16 K
  solubility (mole fraction): 0.024
In dichloromethane, 293.97 K
  solubility (mole fraction): 0.0132
In dichloromethane, 295.96 K
  solubility (mole fraction): 0.0146
In dichloromethane, 298 K
  solubility (mole fraction): 0.0157
In dichloromethane, 300.05 K
  solubility (mole fraction): 0.0166
In dichloromethane, 302.6 K
  solubility (mole fraction): 0.0177
In dichloromethane, 303.99 K
  solubility (mole fraction): 0.0189
In dichloromethane, 305.96 K
  solubility (mole fraction): 0.0199
In dichloromethane, 307.8 K
  solubility (mole fraction): 0.0211
In dichloromethane, 309.6 K
  solubility (mole fraction): 0.0223
In dichloromethane, 311.66 K
  solubility (mole fraction): 0.0236
In dichloromethane, 313.14 K
  solubility (mole fraction): 0.0248
In dichloromethane, 313.93 K
  solubility (mole fraction): 0.0254
In ethanol, 298.69 K
  solubility (mole fraction): 0.000502
In ethanol, 301.12 K
  solubility (mole fraction): 0.000569
In ethanol, 305.66 K
  solubility (mole fraction): 0.000794
In ethanol, 308.87 K
  solubility (mole fraction): 0.001
In ethanol, 312.34 K
  solubility (mole fraction): 0.00118
In ethanol, 315.96 K
  solubility (mole fraction): 0.00136
In ethanol, 318.07 K
  solubility (mole fraction): 0.00151
In ethanol, 320.74 K
  solubility (mole fraction): 0.0017
In ethanol, 323.96 K
  solubility (mole fraction): 0.00197
In ethanol, 327.54 K
  solubility (mole fraction): 0.00225
In ethanol, 330.06 K
  solubility (mole fraction): 0.00251
In ethanol, 333.57 K
  solubility (mole fraction): 0.00289
In methanol, 293.79 K
  solubility (mole fraction): 0.00102
In methanol, 295.38 K
  solubility (mole fraction): 0.00111
In methanol, 299.81 K
  solubility (mole fraction): 0.00136
In methanol, 302.15 K
  solubility (mole fraction): 0.00156
In methanol, 305.86 K
  solubility (mole fraction): 0.00179
In methanol, 309.32 K
  solubility (mole fraction): 0.00211
In methanol, 312.62 K
  solubility (mole fraction): 0.00247
In methanol, 315.38 K
  solubility (mole fraction): 0.00283
In methanol, 320.59 K
  solubility (mole fraction): 0.00361
In methanol, 323.37 K
  solubility (mole fraction): 0.00413
In methanol, 328.11 K
  solubility (mole fraction): 0.0053
In methanol, 330.75 K
  solubility (mole fraction): 0.00598
In methanol, 333.34 K
  solubility (mole fraction): 0.00676
In water, 302.76 K
  solubility (mole fraction): 2.68e-05
In water, 308.62 K
  solubility (mole fraction): 3.94e-05
In water, 314.75 K
  solubility (mole fraction): 4.87e-05
In water, 324.15 K
  solubility (mole fraction): 8.35e-05
In water, 329.34 K
  solubility (mole fraction): 0.000119
In water, 330.75 K
  solubility (mole fraction): 0.000132
In water, 334.52 K
  solubility (mole fraction): 0.000169
In water, 340.44 K
  solubility (mole fraction): 0.000231
In water, 344.57 K
  solubility (mole fraction): 0.000287
In water, 346.87 K
  solubility (mole fraction): 0.000323
In water, 348.94 K
  solubility (mole fraction): 0.000363
